One data set can be described thus: Test for acute toxicity. Format: in vivo, BALB/C mice, nude mice. The note with it: result in words.
Data set [1] relates to methyl cholanthrene A tumor. The data set can be described thus: Methyl cholanthrene A tumor, evaluation by size of tumor (Examples 31 to 33). Format: in vivo, female BALB/C mice. How it is done: A heteropoly acid salt, Na5[IM06O24]•34H2O (Compound M), and other compounds (Compounds N and O ) were severally dissolved in distilled water to obtain aqueous solutions containing the salts in a fixed concentration of 10 mg/ml. To female BALB/C mice (five weeks old) to which methyl cholanthrene A tumor had been transplanted, the aqueous solutions were administered to test the compounds for antineoplastic activity. To be specific, the methyl cholanthrene A was transplanted to the mice at a ratio of 1.0 x 10^5 cells per mouse and the aqueous solutions were administered ([…]) for 9 consecutive days by intraperitoneal injection. On elapse of 14 and 21 days after the stop of the administration, the sizes of tumors in the mice were measured. For comparison, mice to which no aqueous solution was administered and mice to which aminonitrosourea was administered were similarly tested.

The subject of the next data set is methyl cholanthrene A. In words: Methyl cholanthrene A tumor, evaluation by elongation of period of survival (Examples 31, 34 and 35). The format is in vivo, female BALB/C mice. The note with it: 100 mg/kg, ip × 9 (D1~D9). The method, then:
The active compounds, M to 0, mentioned above were severally dissolved in distilled water to obtain aqueous solutions containing the compounds in a fixed concentration of 10 mg/ml. To be specific, to female BALB/C mice (five weeks old) to which methyl cholanthrene A had been transplanted in a ratio of 1.0 x 10^5 cells per mouse, […] for 9 consecutive days to determine the mice's periods of survival. For comparison, mice to which no aqueous solution was administered and mice to which aminonitrosourea was administered were similarly tested.

For data set [2], the system named is human lung cancer (OAT). Format: in vivo, female ICR/cd-1 mice. How it is done:
A patch of human lung cancer [cancer cells recommended by National Cancer Institute (NCI) of the U.S.A.] (OAT) measuring approximately 1 x 1 mm in area was transplanted beneath the hepatic capsule of each of female ICR/cd-1 mice (18 to 20 g) five to six weeks old (SRC method).
Then, an aqueous solution of 1% by weight of the aforementioned compound M was administered by intraperitoneal injection (ip) at a dose of 100 mg/kg and a dose of 200 mg/kg to the mice once per day for 5 consecutive days. The body weights of the mice and the sizes of tumor in the mice were measured on the 7th day, i.e. after one days interval following the stop of the administration to evaluate the effect of compound.

Data set [3] has as its system MM-46 breast cancer. The format is in vivo, female C3H/He mice. The conditions noted are these: for T/C: tumor weight. The method, then: The heteropoly acid salt (Compound M) mentioned above was dissolved in distilled water to obtain an aqueous solution containing the compound in a concentration of 10 mg/ml. This aqueous solution was administered to female C3H/He mice (five weeks old) to which MM-46 breast cancer had been transplanted, to test the compound for antineoplastic activity. To be more specific, the MM-46 breast cancer was transplanted to the mice in a ratio of 1.0 x 10^5 cells per mouse and the aqueous solution was administered (at a dose of 100 mg and a dose of 200 mg per kg of body weight) intraperitoneally (ip) or orally (po) for 9 consecutive days. After elapse of 14 days following the stop of the administration, the sizes of tumor were measured. For comparison, mice to which no aqueous solution was administered were similarly tested.

The subject of data set [4] is MM-46 breast cancer. Format: in vivo, female C3H/He mice. The method, then: The aforementioned active compound M was dissolved in distilled water to obtain an aqueous solution containing the compound in a concentration of 10 mg/ml. To female C3H/He mice (five weeks old) to which MM-46 breast cancer was transplanted in a ratio of 1.0 x 10^5 cells per mouse, the aqueous solution was administered intraperitoneally (ip) or orally (po) at a dose of 100 mg and a dose of 200 mg per kg of body weight for 9 consecutive days to measure the periods of the mices survival. For comparison, mice to which no aqueous solution was administered was similarly tested.

For data set [5], the system named is human lung cancer (OAT). Format: in vivo, female ICR/cd-1 mice. The note with it: Example 39: 100 mg/kg (so in the source), IP 1~6.

Values joined by “and” are separate entries in the source; they are usually repeats but may differ in a detail not shown here. Identical values can stand only once. Like-named read-outs stand apart in the source and are kept apart here.

For “[NH3C3H7(iso)]s (Mo7O24] • 3H2O [Compound A]”, the acute toxicity result is listed as “no toxicity” in the data set “Test for acute toxicity” (BALB/C mice, dose of 3,600 mg/kg) and “no toxicity” in the data set “Test for acute toxicity” (nude mice, dose of 2,000 mg/kg ip).

A word on the ILS: it is the gain in survival time of treated over control animals, in per cent. For the substance Nas [IMo6O24] • 34H2O [Compound M], in data set [1] (100 mg/kg, ip × 9 (D1~D9)), the “Average weight of tumor after elapse of 14 days ± SE” value was 191.1±38.8(7) mg. In addition, the toxicity result in data set [1] (100 mg/kg.ip for 9 consecutive days, judged by increase of body weight, result in words) is “very slight toxicity”. For the same substance, the “Average number of days of survival ±SE” value in the data set on methyl cholanthrene A is on record as 42.57±5.77(7) days. In the data set with methyl cholanthrene A, the ILS was found to be 61.3%. In addition, the T/C came out at 77.4% in the data set with human lung cancer (OAT) [2] (100 mg/kg, IP 1~6 (except for 4)); 0.277 in the data set with MM-46 breast cancer [3] (100 mg/kg/day ip×9); 0.258 with MM-46 breast cancer [3] (200 mg/kg/day po×9); 60.0% in the data set on human lung cancer (OAT) [5]. Besides, the “Tumorous activity T7/T0” value is 2.00±0.20 in the data set on human lung cancer (OAT) [2] (100 mg/kg, IP 1~6 (except for 4), group mean); 2.25 and 1.60 and 2.15 with human lung cancer (OAT) [2] (100 mg/kg, IP 1~6 (except for 4), individual mice); 1.56±0.24 in the data set with human lung cancer (OAT) [5] (group mean); 1.25 and 1.40 and 2.05 with human lung cancer (OAT) [5] (individual mice, 100 mg/kg). Besides, the “Tumorous activity T7” value with human lung cancer (OAT) [2] (100 mg/kg, IP 1~6 (except for 4), size of tumor on 7th day, individual mice) is 22.5 omu and 16.0 omu and 21,5 omu; in the data set on human lung cancer (OAT) [5] (size of tumor on 7th day, individual mice, 100 mg/kg), 12.5 omu and 14.0 omu and 20.5 omu. In addition, in the data set with human lung cancer (OAT) [2] (result in words), the antineoplastic activity result was “strong antineoplastic activity”. The “Average weight of tumor 21 days after transplantation ±SE” value in the data set with MM-46 breast cancer [3] (100 mg/kg/day ip×9) was 560±283(6) mg; with MM-46 breast cancer [3] (200 mg/kg/day po×9) it was 572±76(6) mg. Moreover, the “Number of tumorless mice /total number of mice” value is reported as 0/6 in the data set on MM-46 breast cancer [3] (100 mg/kg/day ip×9) and 0/7 in the data set with MM-46 breast cancer [3] (200 mg/kg/day po×9). Also, the “% ILS” value with MM-46 breast cancer [4] (100 mg/kg/day ip×9) is 100.9%; in the data set with MM-46 breast cancer [4] (200 mg/kg/day po×9), 59.7%. For the same substance, the “(column without head: number of mice/total number of mice)” value in the data set with MM-46 breast cancer [4] (100 mg/kg/day ip×9) is 1/7; in the data set on MM-46 breast cancer [4] (200 mg/kg/day po×9), 0/6. For the same substance, the results for the “Average days of survival ±SE” value in the data set on MM-46 breast cancer [4] (100 mg/kg/day ip×9) and with MM-46 breast cancer [4] (200 mg/kg/day po×9) were 55.1±8.7(7) days and 43.8±3.9(6) days, respectively.

(Values after patent EP0412158A1, “ONCOSTATIC DRUG” (priority 1987, dated 1988).)
